Measurements published in patent publication EP1410020B1, “TEST SYSTEM AND METHOD SUITABLE FOR SELECTING TEST MATERIALS AND FORMULATIONS” (PHARES PHARMACEUTICAL RESEARCH N.V., priority 2001, dated 2003).

Assay: Transmembrane screen (TS) for membrane affinity: drug solution added to membrane lipid Test system in 96 well plate, turbidity assessed visually or at 690 nm
Type: physicochemical
Conditions: higher turbidity with VP 805 than VP200 at 10:1 or lower lipid to drug ratios

relative affinity for VP 200 versus VP 805 (turbidity): higher affinity for VP 200 than VP 805
SMILES: Clc1ccccc1C(c1ccccc1)(c1ccccc1)n1ccnc1 [Clotrimazole]
